These results are taken from ChEMBL document CHEMBL1671671, “Tooth-binding micelles for dental caries prevention” (Antimicrob Agents Chemother, 2009).

By MIC is commonly meant the lowest concentration found to suppress growth. The low end stands for a more susceptible organism, the high end for a less susceptible organism.

Series [1] has as its system Streptococcus mutans. The series is described as follows: Antibacterial activity against Streptococcus mutans UA159 assessed as log decrease in bacterial count per biofilm recovered from hydroxyapatite disc using high dose compound containing hydroxyapatite bound tooth-binding micelles formed from biocompatible pluronic copolymers modified with alendronat measured after 48 hrs post dose. It is filed as functional.

The nature of series [2]: Drug release from hydroxyapatite bound tooth-binding micelles formed from biocompatible pluronic copolymers modified with alendronat assessed as compound release into medium after 48 hrs. In kind it is physicochemical.
Series [3] deals with Streptococcus mutans. The experiment in a line: Antibacterial activity against Streptococcus mutans UA159 assessed as log decrease in bacterial count per biofilm recovered from hydroxyapatite disc using medium dose compound containing hydroxyapatite bound tooth-binding micelles formed from biocompatible pluronic copolymers modified with alendronat measured after 48 hrs post dose. In kind it is functional.

Series [4] relates to Streptococcus mutans. The experiment in a line: Antibacterial activity against Streptococcus mutans UA159 assessed as log decrease in bacterial count per biofilm recovered from hydroxyapatite disc using low dose compound containing hydroxyapatite bound tooth-binding micelles formed from biocompatible pluronic copolymers modified with alendronat measured after 48 hrs post dose. It is filed as functional.

In series [5] the test system is Streptococcus mutans. The series is described as follows: Antibacterial activity against Streptococcus mutans UA159. It is filed as functional.

Values after ≈ are worked out from the molar mass of the structure shown.

Take `CC(C)=CCC/C(C)=C/CC/C(C)=C/CO` [FARNESOL]: the FC in the series on Streptococcus mutans [1], with Streptococcus mutans [3] and in the series on Streptococcus mutans [4] was 4 each time. Further, in series [2], the Activity was 10%. Further, in the series on Streptococcus mutans [5], the minimal inhibitory concentration (MIC) was found to be 125 µM (≈ 27.8 µg/mL).
